Test results reported in the supplement of paper PMC3068080.

Legend:
TGFBR1 mRNA [1] = experiment: remaining TGFBR1 mRNA relative to control siRNA (off-target knock-down) (fraction of control); quantification method: branched DNA (R1), qPCR (R2); higher = less knock-down
Experimental: (§1)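 Screen-hit siRNA duplexes (19-mer plus 3' dTdT overhang) were transiently transfected into HaCaT cells in 12-well plates. After 48 h, TGFBR1 and TGFBR2 mRNA were quantified by branched DNA assay (QuantiGene, normalised to HPRT1) or by SYBR qPCR (normalised to HPRT1/SMAD4). Values are the remaining mRNA relative to control-siRNA-transfected cells; 1-2 biological replicates.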

TGFBR2 mRNA [2] = experiment: remaining TGFBR2 mRNA relative to control siRNA (off-target knock-down) (fraction of control); quantification method: branched DNA (R1), qPCR (R2); higher = less knock-down
Experimental: as §1

TGFBR1 mRNA [3] = experiment: remaining TGFBR1 mRNA relative to control siRNA (off-target knock-down) (fraction of control); quantification method: qPCR; higher = less knock-down
Experimental: as §1

TGFBR2 mRNA [4] = experiment: remaining TGFBR2 mRNA relative to control siRNA (off-target knock-down) (fraction of control); quantification method: qPCR; higher = less knock-down
Experimental: as §1

TGFBR1 mRNA [5] = experiment: remaining TGFBR1 mRNA relative to control siRNA (off-target knock-down) (fraction of control); quantification method: qPCR (R1), branched DNA (R2); higher = less knock-down
Experimental: as §1

TGFBR2 mRNA [6] = experiment: remaining TGFBR2 mRNA relative to control siRNA (off-target knock-down) (fraction of control); quantification method: qPCR (R1), branched DNA (R2); higher = less knock-down
Experimental: as §1

TGFBR2 mRNA [7] = experiment: remaining TGFBR2 mRNA relative to control siRNA (off-target knock-down) (fraction of control); quantification method: branched DNA; higher = less knock-down
Experimental: as §1

TGFBR1 mRNA [8] = experiment: remaining TGFBR1 mRNA relative to control siRNA (off-target knock-down) (fraction of control); quantification method: branched DNA; higher = less knock-down
Experimental: as §1

Sequence | remaining TGFBR2 mRNA (TGFBR2 mRNA [7]) | remaining TGFBR1 mRNA (TGFBR1 mRNA [8]) | also measured
UCUCGCUGACGAAGCAGUATT | – | – | remaining TGFBR1 mRNA (TGFBR1 mRNA [1]): 1.1; remaining TGFBR2 mRNA (TGFBR2 mRNA [2]): 0.75
ACUACGACUCAGUGCCUGGTT | – | – | remaining TGFBR1 mRNA (TGFBR1 mRNA [1]): 1; remaining TGFBR2 mRNA (TGFBR2 mRNA [2]): 0.7
UGCACCUGACUUUUCUCUGTT | – | – | remaining TGFBR1 mRNA (TGFBR1 mRNA [1]): 1.37; remaining TGFBR2 mRNA (TGFBR2 mRNA [2]): 0.72
AGACGGCAAACGACUGUCCTT | – | – | remaining TGFBR1 mRNA (TGFBR1 mRNA [1]): 1.27; remaining TGFBR2 mRNA (TGFBR2 mRNA [2]): 0.75
AACUGGUUCAGGUACUUCCTT | – | – | remaining TGFBR1 mRNA (TGFBR1 mRNA [1]): 0.95; remaining TGFBR2 mRNA (TGFBR2 mRNA [2]): 0.71
AUGAUGUCAUCGGCUGUGGTT | – | – | remaining TGFBR1 mRNA (TGFBR1 mRNA [3]): 0.68; remaining TGFBR2 mRNA (TGFBR2 mRNA [4]): 0.15
AUGUGUACAGCCCUCUUCCTT | – | – | remaining TGFBR1 mRNA (TGFBR1 mRNA [1]): 1.84; remaining TGFBR2 mRNA (TGFBR2 mRNA [2]): 0.65
UUAUUUGGGUGGGCUGGGGTT | – | – | remaining TGFBR1 mRNA (TGFBR1 mRNA [1]): 0.98; remaining TGFBR2 mRNA (TGFBR2 mRNA [2]): 0.75
UGUCUCCUCUCUUGUCCGUTT | – | – | remaining TGFBR1 mRNA (TGFBR1 mRNA [1]): 0.95; remaining TGFBR2 mRNA (TGFBR2 mRNA [2]): 0.7
AGCUCAAACAGUAUCUGGUTT | – | – | remaining TGFBR1 mRNA (TGFBR1 mRNA [1]): 1.45; remaining TGFBR2 mRNA (TGFBR2 mRNA [2]): 0.7
AUAGACCAUCCCCCUUCUUTT | – | – | remaining TGFBR1 mRNA (TGFBR1 mRNA [5]): 0.46; remaining TGFBR2 mRNA (TGFBR2 mRNA [6]): 0.95
AUCCUGCAGAAUCACGUCCTT | – | – | remaining TGFBR1 mRNA (TGFBR1 mRNA [1]): 0.93; remaining TGFBR2 mRNA (TGFBR2 mRNA [2]): 0.7
UUUUCCUGGCCUCUGAUCCTT | 0.15 | 0.99 | –
UCUGCAACGUAGAGGUUAUTT | 0.79 | 0.22 | –
AUGGAGUAGCAUCACUCUCTT | 0.33 | 1.1 | –
CCACUGGUGUGGGCCAUAATT | 0.51 | 1.38 | –
AAUCAGGGCGGAGUAGGUGTT | 0.91 | 1.21 | –
GAUGUUCCACAAAUUCCACTT | 0.47 | 0.85 | –
UGAUGUUGUCUUGUCUGGUTT | 0.42 | 0.44 | –
AUCCUUGUCUGGAACAGUGTT | 0.25 | 1.33 | –
UUGAGCGAUUCCAGCUGCATT | 0.85 | 1.77 | –
ACAGCCUCGAACACUGACATT | 0.58 | 1.04 | –
AGGUCAUCACGUACUUUUUTT | 1.09 | 0.16 | –
UGGGCUUUUCUCUUCUCUCTT | 1.43 | 1.47 | –
ACCAUGUCGGCCUUUUCAATT | 0.5 | 0.35 | –
UACUUAAAGCCAGGGCCACTT | 0.77 | 1.32 | –
AAGUCUGACUCGGUAAGUATT | 0.72 | 0.87 | –
AUAAGACAAGUGGUCGGGGTT | 0.94 | 0.52 | –

Sequence | remaining TGFBR2 mRNA (TGFBR2 mRNA [7]) | remaining TGFBR1 mRNA (TGFBR1 mRNA [8]) | also measured
UUGUCAAAGUGGAACGCUCTT | 0.29 | 0.83 | –
CUACCAUCAAUCCGGUAGGTT | 0.84 | 0.94 | –
AUAAGCAGUGAGAACGAGCTT | 1.26 | 0.5 | –
AGCGGUGCGUUUCAGGCUGTT | 0.7 | 1.06 | –
UCAUAAGCAUGCUCCACACTT | 0.62 | 0.14 | –
UUAUUGGGCAAAAUCCGGGTT | 0.72 | 0.88 | –
CUCUGGGGAUUUGGAGGAUTT | – | – | remaining TGFBR1 mRNA (TGFBR1 mRNA [1]): 1.07; remaining TGFBR2 mRNA (TGFBR2 mRNA [2]): 0.71
UCUGUCAUAGGAUCCAAAATT | – | – | remaining TGFBR1 mRNA (TGFBR1 mRNA [3]): 0.74; remaining TGFBR2 mRNA (TGFBR2 mRNA [4]): 0.75
CCUCAAUUGACACUUGCCUTT | 0.8 | 1 | –
UGCUUAUCUCAUCUGAAGCTT | 0.28 | 0.93 | –
AAUGCUGUUGGCAGCCAGATT | 0.11 | 0.71 | –
UCAAGCCCAGAGGUGUCAUTT | 1 | 1.24 | –
AGGUUGUGGGCAAAGAUGUTT | 0.83 | 0.92 | –
AGUGGUACCACGAGCAAAGTT | 0.66 | 0.88 | –
AUCCUUGGCCAGUUUGGUCTT | 0.15 | 1.19 | –
AGCCUCUGGAGAAUCUCCUTT | 0.6 | 1.04 | –
AUGACACCUCAGUCCUUCCTT | 0.88 | 0.38 | –
UUUCAUUCCAUUGGAAUUUTT | 0.59 | 1.25 | –
ACCUUACCUUGUCGACGAATT | 0.56 | 0.7 | –
UGUCCUGGUCACACUUCCATT | 0.5 | 0.23 | –
AUCUACACACACGCAAGAATT | 0.73 | 1.48 | –
UCCUUGGUGUAUUCUAACATT | 0.42 | 0.93 | –
AUCCUUGGAGAUGAGCUGGTT | 0.16 | 0.72 | –
UCUCGGAGGCAGUUCCAGCTT | 0.82 | 0.86 | –
AGGAUCAGCAGCCCGUAGCTT | – | – | remaining TGFBR1 mRNA (TGFBR1 mRNA [1]): 1.52; remaining TGFBR2 mRNA (TGFBR2 mRNA [2]): 0.72
AGAUCACCGCGUAGACAACTT | 0.65 | 1.01 | –
AACACCAUCUACUUGAUGGTT | – | – | remaining TGFBR1 mRNA (TGFBR1 mRNA [1]): 1.31; remaining TGFBR2 mRNA (TGFBR2 mRNA [2]): 0.78
